Test results: patent publication US6630472B1, “Compounds, pharmaceutical compositions, and methods for stimulating neuronal growth and elongation” (priority 1998, dated 2003)

Target: FKBP12 (Homo sapiens, UniProt P62942)
Experiment: rotamase inhibition assay (N-succinyl-Ala-Ala-Pro-Phe-p-nitroanilide, chymotrypsin-coupled)
Format: biochemical
Details: @ 2.5 μM
Protocol: In the rotamase inhibition assay, isomerization of an artificial substrate N-succinyl-Ala-Ala-Pro-Phe-p-nitroanilide is followed spectrophotometrically. The assay includes the cis form of the substrate, FKBP12, the compound being tested, and chymotrypsin. Chymotrypsin is able to cleave p-nitroaniline from the trans form of the substrate, but not from the cis form. Release of p-nitroaniline is measured spectrophotometrically. Using this assay, various amounts of the FKBP rotamase-inhibiting compounds of formula (I-a) or (I-b) were added to cis-N-succinyl-alanine-alanine-proline-phenylalanine-para-nitroaniline (Bachem, 3132 Kashiwa Street, Torrance, Calif. 90505) in the presence of FKBP12 and chymotrypsin. Spectrophotometric measurements of p-nitroaniline concentrations allowed estimation of the apparent Ki values, which are provided in Table 1 below.

Chain of FKBP12 (P62942 whole entry, species assumed): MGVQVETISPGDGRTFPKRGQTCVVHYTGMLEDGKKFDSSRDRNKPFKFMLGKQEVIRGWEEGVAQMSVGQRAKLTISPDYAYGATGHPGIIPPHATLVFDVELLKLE

Compound | inhibition at 2.5 µM [%]
CCCC(CCC)C(=O)OC[C@@H](CN1CC2CCCC(C1=O)N2C(=O)C(=O)C(C)(C)CC)OCc1ccccc1 (stereo partly drawn) [Compound 55] | 40

Same assay, conditions: apparent Ki; NI = no inhibition at the concentrations tested; read-out: Rotamase Ki(app)

Compound | Ki [µM]
COc1cc(C(=O)C(=O)N2C3CCCC2C(=O)N(CCc2ccccc2)CC3)cc(OC)c1OC (stereo not drawn) [Compound 159, 1-(2-Oxo-3-phenethyl-3,10-diaza-bicyclo[4.3.1]dec-10-yl)-2-(3,4,5-trimethoxy-phenyl)-ethane-1,2-dione] | 0.76
C=CCC(CC=C)C(=O)OC[C@@H](CN1CC2CCCC(C1=O)N2C(=O)C(=O)c1cc(OC)c(OC)c(OC)c1)OCc1ccccc1 (stereo partly drawn) [Compound 76] | 0.112
CCC(C)(C)C(=O)C(=O)N1C2CCCC1C1=CN(C3CCCC3)C(=O)CN1C2=O (stereo not drawn) [Compound 118] | 1
COC1(C(=O)C(=O)N2[C@@H]3CCC[C@H]2C(=O)N2Cc4c(cc(C(F)(F)F)cc4C(F)(F)F)C[C@@H]32)CCCC1 [Compound 137] | 9.7
C=CCC(CC=C)C(=O)OC[C@@H](CN1CC2CCCC(C1=O)N2C(=O)C(=O)C1(COC(C)=O)CCCC1)OCc1ccccc1 (stereo partly drawn) [Compound 109] | 0.049
COc1cc(C(=O)C(=O)N2C3CCCC2C(=O)N(C(CO)COCc2ccccc2)C3)cc(OC)c1OC (stereo not drawn) [Compound 51] | 4
COC[C@@H]1CC[C@@H](C)[C@](O)(C(=O)C(=O)N2C3CCCC2C(=O)N(CCCCc2ccccc2)C3)C1 (stereo partly drawn) [Compound 120] | 2.5
COc1cc(C(=O)C(=O)N2C3CCCC2C(=O)N(C[C@H](CO)OCc2ccccc2)C3)cc(OC)c1OC (stereo partly drawn) [Compound 45] | 0.58
CC(=O)OCC1(C(=O)C(=O)N2C3CCCC2C2=CN(C4CCCC4)C(=O)CN2C3=O)CCCC1 (stereo not drawn) [Compound 121] | 0.78
CC(=O)OCC1(C(=O)C(=O)N2C3CCCC2C(=O)N(CCCCc2ccccc2)C3)CCCC1 (stereo not drawn) [Compound 62] | 0.16
COCOC1(C(=O)C(=O)N2C3CCC[C@@H]2[C@@H]2Cc4c(cc(OC)cc4OC)CN2C3=O)CCCC1 [Compound 136] | 2.4
COc1cc(C(=O)C(=O)N2C3CCCC2C(=O)N(Cc2ccc4ccccc4c2)C3)cc(OC)c1OC (stereo not drawn) [Compound 139] | 0.355
COc1cc(C(=O)C(=O)N2C3CCCC2C(=O)N(C2CCCCC2)C3)cc(OC)c1OC (stereo not drawn) [Compound 44] | 3
CCC(C)(C)C(=O)C(=O)N1C2CCCC1C(=O)N(C1CCCC1)C2 (stereo not drawn) [Compound 69] | 33
CCCC(CCC)C(=O)OC[C@H](CN1CC2CCCC(C1=O)N2C(=O)C(=O)c1cc(OC)c(OC)c(OC)c1)OCc1ccccc1 (stereo partly drawn) [Compound 47] | 0.2
COc1cc(C(=O)C(=O)N2C3CCCC2C(=O)N([C@H]2CCC[C@@H]2OCc2ccccc2)C3)cc(OC)c1OC (stereo partly drawn) [Compound 71] | 4.7
COCC(=O)OC1(C(=O)C(=O)N2C3CCCC2C2=CN(C4CCCC4)C(=O)CN2C3=O)CCCC1 (stereo not drawn) [Compound 145] | 1.7
C=CCC(CC=C)C(=O)OC[C@@H]1CC[C@H](N2CC3CCCC(C2=O)N3C(=O)C(=O)c2cc(OC)c(OC)c(OC)c2)C1 (stereo partly drawn) [Compound 154] | 0.244
COc1cccc2c1CCN1C(=O)C3CCCC(C21)N3C(=O)C(=O)c1cc(OC)c(OC)c(OC)c1 (stereo not drawn) [Compound 12] | 0.027
COc1cc(C(=O)C(=O)N2C3CCCC2C(=O)N(CCCCc2ccccc2)C3)cc(OC)c1OC (stereo not drawn) [Compound 33] | 0.227
CCC(C)(C)C(=O)C(=O)N1C2CCCC1C(=O)N(C1CCCCC1)C2 (stereo not drawn) [Compound 57] | 74
CCC(C)(C)C(=O)C(=O)N1C2CCCC1C(=O)N(C[C@@H](CO)OCc1ccccc1)C2 (stereo partly drawn) [Compound 59] | 3.8
COc1cc(C(=O)C(=O)N2C3CCCC2C2OCCN2C3=O)cc(OC)c1OC (stereo not drawn) [Compound 96] | 1.4
COC(CN1C[C@@H]2[C@H]3CCC[C@@H](C(=O)N2CC1=O)N3C(=O)C(=O)C1(OC)CCCC1)OC [Compound 115] | > 20
CO[C@@H](C)[C@@H]1CC[C@@H](C)[C@](O)(C(=O)C(=O)N2C3CCCC2C(=O)N(CCCCc2ccccc2)C3)C1 (stereo partly drawn) [Compound 99] | 3.7

Test system: not given
Experiment: not given
Details: not given

Compound | melting point [°C]
COc1cc(C(=O)C(=O)N2C3CCCC2C(=O)N(CCCCc2ccccc2)C3=O)cc(OC)c1OC | 101 to 103
